From PubChem BioAssay (NCI)
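Dose response: 5 concentrations. Exposure: 48 h. Format: 96-well plates. Endpoint: linear interpolation; highest concentration if not reached. GI50 is the concentration that inhibits growth by half. TGI marks complete inhibition of growth.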

Experiments:
Test in all cases: inhibition of tumour cell growth, NCI panel, 48 h
HS 578T breast = tested on: HS 578T breast
CAKI-1 renal = tested on: CAKI-1 renal
A498 renal = tested on: A498 renal
OVCAR-5 ovarian = tested on: OVCAR-5 ovarian
HCT-116 colon = tested on: HCT-116 colon
K-562 leukemia = tested on: K-562 leukemia
OVCAR-3 ovarian = tested on: OVCAR-3 ovarian
HCT-15 colon = tested on: HCT-15 colon
SF-539 CNS = tested on: SF-539 CNS
UO-31 renal = tested on: UO-31 renal
BT-549 breast = tested on: BT-549 breast
SN12C renal = tested on: SN12C renal
SK-MEL-5 melanoma = tested on: SK-MEL-5 melanoma
SW-620 colon = tested on: SW-620 colon
UACC-62 melanoma = tested on: UACC-62 melanoma
PC-3 prostate = tested on: PC-3 prostate
UACC-257 melanoma = tested on: UACC-257 melanoma
HT29 colon = tested on: HT29 colon
ACHN renal = tested on: ACHN renal
MDA-MB-435 = tested on: MDA-MB-435
HOP-62 NSCLC = tested on: HOP-62 NSCLC
OVCAR-8 ovarian = tested on: OVCAR-8 ovarian
HCC-2998 colon = tested on: HCC-2998 colon
SK-OV-3 ovarian = tested on: SK-OV-3 ovarian
LOX IMVI melanoma = tested on: LOX IMVI melanoma
RXF 393 renal = tested on: RXF 393 renal
HL-60(TB) leukemia = tested on: HL-60(TB) leukemia
SNB-19 CNS = tested on: SNB-19 CNS
IGROV1 ovarian = tested on: IGROV1 ovarian
NCI-H460 lung = tested on: NCI-H460 lung
SK-MEL-2 melanoma = tested on: SK-MEL-2 melanoma
COLO 205 colon = tested on: COLO 205 colon
HOP-92 NSCLC = tested on: HOP-92 NSCLC
786-0 renal = tested on: 786-0 renal
SF-268 CNS = tested on: SF-268 CNS
DU-145 prostate = tested on: DU-145 prostate
TK-10 renal = tested on: TK-10 renal
SK-MEL-28 melanoma = tested on: SK-MEL-28 melanoma
NCI-H226 lung = tested on: NCI-H226 lung
SR leukemia = tested on: SR leukemia
A549 NSCLC = tested on: A549 NSCLC
M14 melanoma = tested on: M14 melanoma
RPMI-8226 leukemia = tested on: RPMI-8226 leukemia
EKVX NSCLC = tested on: EKVX NSCLC
T-47D breast = tested on: T-47D breast
NCI-H522 lung = tested on: NCI-H522 lung
MOLT-4 leukemia = tested on: MOLT-4 leukemia
MDA-MB-468 breast = tested on: MDA-MB-468 breast
SNB-75 CNS = tested on: SNB-75 CNS
U251 CNS = tested on: U251 CNS
CCRF-CEM leukemia = tested on: CCRF-CEM leukemia
MCF7 breast = tested on: MCF7 breast
SF-295 CNS = tested on: SF-295 CNS
MALME-3M melanoma = tested on: MALME-3M melanoma
NCI-H23 lung = tested on: NCI-H23 lung
MDA-MB-231 breast = tested on: MDA-MB-231 breast
KM12 colon = tested on: KM12 colon
OVCAR-4 ovarian = tested on: OVCAR-4 ovarian

Q: Which results are given for `CN(C(=O)c1ccc(C(F)(F)F)cc1C(F)(F)F)c1sc2c(c1C#N)CCC(=O)C2`?
A: GI50 (HS 578T breast): 3.92 µM; TGI (HS 578T breast): 28.7 µM; GI50 (CAKI-1 renal): 7.01 µM; TGI (CAKI-1 renal): 21.1 µM; GI50 (A498 renal): 16.9 µM; TGI (A498 renal): 30.9 µM; GI50 (OVCAR-5 ovarian): 21.3 µM; TGI (OVCAR-5 ovarian): 39.6 µM; GI50 (HCT-116 colon): 3.65 µM; TGI (HCT-116 colon): 14.4 µM; GI50 (K-562 leukemia): 2.7 µM; TGI (K-562 leukemia): > 100 µM; GI50 (OVCAR-3 ovarian): 2.4 µM; TGI (OVCAR-3 ovarian): 6.1 µM; GI50 (HCT-15 colon): 3.09 µM; TGI (HCT-15 colon): 11.6 µM; GI50 (SF-539 CNS): 2.34 µM; TGI (SF-539 CNS): 5.04 µM; GI50 (UO-31 renal): 3.15 µM; TGI (UO-31 renal): 13.7 µM; GI50 (BT-549 breast): 2.82 µM; TGI (BT-549 breast): 8.29 µM; GI50 (SN12C renal): 10.5 µM; TGI (SN12C renal): 29.6 µM; GI50 (SK-MEL-5 melanoma): 8.15 µM; TGI (SK-MEL-5 melanoma): 21.1 µM; GI50 (SW-620 colon): 3.22 µM; TGI (SW-620 colon): 12.3 µM; GI50 (UACC-62 melanoma): 4.48 µM; TGI (UACC-62 melanoma): 17 µM; GI50 (PC-3 prostate): 2.69 µM; TGI (PC-3 prostate): 6.93 µM; GI50 (UACC-257 melanoma): 16.3 µM; TGI (UACC-257 melanoma): 32.8 µM; GI50 (HT29 colon): 17.6 µM; TGI (HT29 colon): 34.4 µM; GI50 (ACHN renal): 14.2 µM; TGI (ACHN renal): 29.6 µM; GI50 (MDA-MB-435): 15.7 µM; TGI (MDA-MB-435): 30.5 µM; GI50 (HOP-62 NSCLC): 16.1 µM; TGI (HOP-62 NSCLC): 30.3 µM; GI50 (OVCAR-8 ovarian): 4.66 µM; TGI (OVCAR-8 ovarian): 19 µM; GI50 (HCC-2998 colon): 15.1 µM; TGI (HCC-2998 colon): 29.5 µM; GI50 (SK-OV-3 ovarian): 15.3 µM; TGI (SK-OV-3 ovarian): 28.9 µM; GI50 (LOX IMVI melanoma): 4.09 µM; TGI (LOX IMVI melanoma): 15.5 µM; GI50 (RXF 393 renal): 2.74 µM; TGI (RXF 393 renal): 10.1 µM; GI50 (HL-60(TB) leukemia): 3.33 µM; TGI (HL-60(TB) leukemia): 25.6 µM; GI50 (SNB-19 CNS): 12.4 µM; TGI (SNB-19 CNS): 26.8 µM; GI50 (IGROV1 ovarian): 11.3 µM; TGI (IGROV1 ovarian): 25.7 µM; GI50 (NCI-H460 lung): 17.2 µM; TGI (NCI-H460 lung): 33.2 µM; GI50 (SK-MEL-2 melanoma): 14.3 µM; TGI (SK-MEL-2 melanoma): 31 µM; GI50 (COLO 205 colon): 16 µM; TGI (COLO 205 colon): 30.5 µM; GI50 (HOP-92 NSCLC): 5.35 µM; TGI (HOP-92 NSCLC): 19.3 µM; GI50 (786-0 renal): 15.7 µM; TGI (786-0 renal): 34.7 µM; GI50 (SF-268 CNS): 12.1 µM; TGI (SF-268 CNS): 32.8 µM; GI50 (DU-145 prostate): 17.3 µM; TGI (DU-145 prostate): 31.3 µM; GI50 (TK-10 renal): 14.6 µM; TGI (TK-10 renal): 28 µM; GI50 (SK-MEL-28 melanoma): 21.4 µM; TGI (SK-MEL-28 melanoma): 43.8 µM; GI50 (NCI-H226 lung): 16.7 µM; TGI (NCI-H226 lung): 40.9 µM; GI50 (SR leukemia): 2.64 µM; TGI (SR leukemia): 11 µM; GI50 (A549 NSCLC): 18.1 µM; TGI (A549 NSCLC): 41.8 µM; GI50 (M14 melanoma): 4.18 µM; TGI (M14 melanoma): 19.2 µM; GI50 (RPMI-8226 leukemia): 2.82 µM; TGI (RPMI-8226 leukemia): 13.3 µM; GI50 (EKVX NSCLC): 14.2 µM; TGI (EKVX NSCLC): 30.8 µM; GI50 (T-47D breast): 4.43 µM; TGI (T-47D breast): 30.4 µM; GI50 (NCI-H522 lung): 1.62 µM; TGI (NCI-H522 lung): 3.38 µM; GI50 (MOLT-4 leukemia): 4.13 µM; TGI (MOLT-4 leukemia): 27.8 µM; GI50 (MDA-MB-468 breast): 2.35 µM; TGI (MDA-MB-468 breast): 6.93 µM; GI50 (SNB-75 CNS): 5.25 µM; TGI (SNB-75 CNS): 20.7 µM; GI50 (U251 CNS): 1.98 µM; TGI (U251 CNS): 4.68 µM; GI50 (CCRF-CEM leukemia): 2.73 µM; TGI (CCRF-CEM leukemia): 14.6 µM; GI50 (MCF7 breast): 14.6 µM; TGI (MCF7 breast): 31 µM; GI50 (SF-295 CNS): 12.3 µM; TGI (SF-295 CNS): 25.6 µM; GI50 (MALME-3M melanoma): 18.1 µM; TGI (MALME-3M melanoma): 36.1 µM; GI50 (NCI-H23 lung): 6.94 µM; TGI (NCI-H23 lung): 22.8 µM; GI50 (MDA-MB-231 breast): 13.1 µM; TGI (MDA-MB-231 breast): 35 µM; GI50 (KM12 colon): 4.25 µM; TGI (KM12 colon): 17.5 µM; GI50 (OVCAR-4 ovarian): 3 µM; TGI (OVCAR-4 ovarian): 10.3 µM
